The test system of one assay is IL-2. The assay is described as follows: Inhibition of IL-2 production in PHA-activated Jurkat cells (1% FBS), ELISA. The class given is cell-based. The note with it: Homo sapiens, read-out: IL-2 current inhibition Jurkat/PHA/1% FBS IC50. How it is done: Jurkat cells were placed in a 96 well plate (0.5 million cells per well in 1% FBS medium), and then a test compound of this invention was added at different concentrations. After 10 minutes, the cells were activated with PHA (final concentration 2.5 μg/mL) and incubated for 20 hours at 37° C. under 5% CO2. The final volume was 200 Following incubation, the cells were centrifuged, and the supernatants collected and stored at −70° C. prior to assaying for IL-2 production. A commercial ELISA kit (IL-2 Eli-pair, Diaclone Research, Besancon, France) was used to detect production of IL-2, from which dose response curves were obtained. The IC50 value was calculated as the concentration at which 50% of maximum IL-2 production after stimulation was inhibited versus a non-stimulation control.
For orientation: An ELISA detects its analyte on a solid surface through an enzyme-linked reagent.

The next assay deals with T1, CRACM1/STIM1 (Homo sapiens, UniProt Q96D31).
T1 construct: Full length human Stim1, CracM1, CracM2 and CracM3 cDNA
T1 sequence (Q96D31 whole entry): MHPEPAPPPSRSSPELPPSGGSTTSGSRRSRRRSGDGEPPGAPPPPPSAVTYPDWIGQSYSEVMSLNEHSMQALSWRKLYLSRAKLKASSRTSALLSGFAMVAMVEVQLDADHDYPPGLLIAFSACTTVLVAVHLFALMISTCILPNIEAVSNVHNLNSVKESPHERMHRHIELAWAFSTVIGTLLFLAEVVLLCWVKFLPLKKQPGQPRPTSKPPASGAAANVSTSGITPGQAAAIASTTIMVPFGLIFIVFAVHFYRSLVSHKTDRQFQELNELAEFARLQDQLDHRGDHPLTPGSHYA
Nature of the assay: ICRAC current inhibition in CRACM1/STIM1-CHOK1 cells (patch clamp). Format: cell-based. As to conditions: 500 nM, activity class. How it is done:
Manual patch clamp experiments are conducted in the tight-seal whole-cell configuration at room temperature (21-25° C.). Patch pipettes are fashioned from borosilicate glass capillary tubes and have resistances between 2-4 MO after filling with standard intracellular solution. High resolution current recordings are acquired with a computer-based patch clamp amplifier system (EPC-10, HEKA, Lambrecht, Germany). All voltages are corrected for a liquid junction potential of 10 mV between external and internal solutions with glutamate as the intracellular anion. Currents are filtered at 2.9 kHz and digitized at 10 μs intervals. Capacitive currents and series resistance are determined and corrected before each voltage ramp using the automatic capacitance compensation of the EPC-10.
Automated patch clamp experiments are conducted with the QPatch 16 (Sophion Bioscience, Ballerup, Denmark) at room temperature (21-25° C.). Immediately following the establishment of giga-seal whole-cell configuration, the cells membrane potential is clamped at 0 mV. Voltage ramps of 50 ms duration spanning the voltage range of −100 to +100 mV are then stimulated at a rate of 0.33 Hz. Currents are filtered at 2.9 kHz and digitized at 200 μs intervals. Capacitive currents and series resistance are determined and corrected before each voltage ramp using the automatic capacitance compensation.
In general, a whole cell patch clamp method is used to examine the effects of a compound of the invention on a channel(s) that mediates ICRAC. In such experiments, a baseline ICRAC measurement is established within the first 70 voltage ramps, or 140 seconds, for a patched cell. Then the cells are perfused with the compound to be tested and the effect of the compound on ICRAC is measured for at least an additional 440 to 500 seconds. A compound that modulates ICRAC (e.g., inhibits) is a compound that is useful in the invention for modulating CRAC ion channel activity.
ICRAC currents are measured using 50 msec voltage ramps between −100 mV to +100 mV. The voltage ramps are stimulated every 2 seconds for the first 70 sweeps, then every 5 seconds for the remainder of the experiment. The membrane potential is held at 0 mV between the test ramps. In a typical experiment, the peak inward currents will develop within 50-100 seconds. Once the ICRAC current is stabilized, the cells are perfused with a test compound in the extracellular solution for at least an additional 500 seconds.
Off-line analysis with the Heka PatchMaster software is used to separate the ICRAC membrane current from the cells basal background currents. In a typical recording, InsP3 stimulated ICRAC currents begin to develop in 6 to 12 seconds after whole cell is established. Therefore, the first 1-4 voltage ramps represent the basal membrane currents in the absence of ICRAC and the average value is subtracted from all subsequent traces. The current value at −80 mV for each ramp trace is then measured and plotted against time. The resulting current versus time data is exported into a Microsoft Excel spreadsheet. The % ICRAC inhibition in each cell is calculated by comparing the amount of current just prior to the compound perfusion to the amount of current after the cells has been perfused with the compound for 440-500 seconds. The IC50 value and Hill coefficient for each compound is estimated by fitting all the individual data points to a single-site Hill equation.
TREx™-CHO cells were transfected with human Stim1 (recombinant DNA in pcDNA4/TO/myc-His™ A with a myc epitope tag in the N-terminal) and either CracM1, CracM2 or CracM3 (recombinant DNA in pcDNA 3.1 with a HA epitope tag in the N-terminal). Stably expressing cells were selected by growing the transfected cells in antibiotics for two to three weeks. Individual cell clones were isolated via serial dilution. […]
In general terms: The patch-clamp technique gives a direct electrical read-out from membranes.

Where two headings read alike, the source gives them in different places.

With `CC(=O)c1cc(-c2ccc(NC(=O)c3c(F)cccc3F)cc2)c(C)s1` [L], the IC50 with IL-2 (activity class) was > 100 nM. In the case of `Cc1sc(-c2ccccn2)nc1-c1ccc(NC(=O)c2c(F)cccc2F)cc1` [Compound 2, 2,6-Difluoro-N-(4-(5-methyl-2-(pyridin-2-yl)thiazol-4-yl)phenyl)benzamide], the IC50 with IL-2 (activity class) is < 50 nM. The inhibition at 0.5 µM at CRACM1/STIM1 lay in the range of 70 to 100%. Turning to `Cc1sc(CCc2cccnc2)cc1-c1ccc(NC(=O)c2c(F)cccc2F)cc1` [R], the IC50 with IL-2 (activity class) was < 50 nM. With `Cc1cc(C(=O)c2cccnc2)sc1-c1ccc(NC(=O)c2c(F)cccc2F)cc1` [Compound 6, 2,6-difluoro-N-(4-(3-methyl-5-nicotinoylthiophen-2-yl)phenyl)benzamide], the IC50 with IL-2 (activity class) was < 50 nM. Further, the inhibition at 0.5 µM against CRACM1/STIM1 is 70 to 100%. Turning to `C=C(C)c1sc(-c2cccnc2)cc1-c1cnc(NC(=O)c2c(F)cccc2F)cn1` [Compound 13, 2,6-difluoro-N-(5-(2-(prop-1-en-2-yl)-5-(pyridin-3-yl)thiophen-3-yl)pyrazin-2-yl)benzamide], in the assay with IL-2 (activity class), the IC50 lay in the range of 50 to 100 nM. On to `Cc1cc(Cc2cccnc2)sc1-c1ccc(NC(=O)c2c(F)cccc2F)cc1` [Compound 7, 2,6-difluoro-N-(4-(3-methyl-5-(pyridin-3-ylmethyl)thiophen-2-yl)phenyl)benzamide], for which the IC50 with IL-2 (activity class) was < 50 nM. Besides, the inhibition at 0.5 µM against CRACM1/STIM1 fell in the range of 70 to 100%. Take `CCc1sc(-c2ccc(C)nc2)nc1-c1ccc(NC(=O)c2cccc(F)c2C)nc1` [Compound A7]: the IC50 with IL-2 (numeric values, unit inferred) came out at 21 nM. Regarding `Cc1sc(-c2ccc(N)nc2)nc1-c1cnc(NC(=O)c2c(F)cccc2F)cn1` [Compound A4], in the assay with IL-2 (numeric values, unit inferred), the IC50 is 17 nM. Regarding `Cc1sc(-c2ncc(-c3cccnc3)s2)cc1-c1ccc(NC(=O)c2c(F)cccc2F)nc1` [I], the IC50 with IL-2 (activity class) is > 100 nM.

With `Cc1sc(C#Cc2cccnc2)cc1-c1ccc(NC(=O)c2c(F)cccc2F)cc1` [Q], in the assay on IL-2 (activity class), the IC50 is < 50 nM. Consider `Cc1sc(CCc2cccnc2)nc1-c1ccc(NC(=O)c2c(F)cccc2F)nc1` [E], for which the IC50 in the assay on IL-2 (activity class) fell in the range of 50 to 100 nM. For `CCc1sc(-c2cccnc2C)nc1-c1ccc(NC(=O)c2cccc(F)c2C)nc1` [Compound A9], the IC50 in the assay on IL-2 (numeric values, unit inferred) turned out to be 28 nM. Turning to `COC(=O)c1cc(NC(=O)c2c(F)cccc2F)ccc1-c1cc(-c2cccnc2)sc1CO` [M], the IC50 in the assay with IL-2 (activity class) is > 100 nM. For the compound `Cc1sc(-c2cnccn2)nc1-c1ccc(NC(=O)c2cccc(F)c2C)nc1` [Compound A11], in the assay with IL-2 (numeric values, unit inferred), the IC50 worked out at 43 nM. `Cc1sc(-c2cccnc2)nc1-c1ccc(NC(=O)c2c(F)cccc2F)cc1` [F]: the IC50 in the assay on IL-2 (activity class) is < 50 nM. Moreover, at CRACM1/STIM1, the inhibition at 0.5 µM lay in the range of 50 to 70%.

Turning to `CCc1sc(-c2ccc(N)nc2)nc1-c1ccc(NC(=O)c2cccc(F)c2C)nc1` [Compound A3], the IC50 in the assay with IL-2 (numeric values, unit inferred) is 16 nM. Turning to `CC(C)c1sc(-c2cccnc2)nc1-c1ccc(NC(=O)c2c(F)cccc2F)nc1` [C], the IC50 in the assay with IL-2 (activity class) is < 50 nM. The inhibition at 0.5 µM at CRACM1/STIM1 is < 50%.

For `Cc1cccc(F)c1C(=O)Nc1ccc(-c2nc(-c3ccc(N)nc3)sc2C)cn1` [Compound A8], the IC50 with IL-2 (numeric values, unit inferred) came out at 26 nM.

`Cc1sc(C(=O)c2ccncc2)cc1-c1ccc(NC(=O)c2c(F)cccc2F)cc1` [P]: in the assay with IL-2 (activity class), the IC50 is < 50 nM. `CCc1sc(-c2cccnc2)nc1-c1ccc(NC(=O)c2cccc(F)c2C)nc1` [Compound A2]: the IC50 in the assay with IL-2 (numeric values, unit inferred) was 10 nM.

For `Cc1sc(-c2cncn2CCN(C)C)cc1-c1ccc(NC(=O)c2c(F)cccc2F)cc1` [K], the IC50 with IL-2 (activity class) was > 100 nM. `C=C(C)c1sc(-c2cccnc2)cc1-c1ccc(NC(=O)c2c(F)cccc2F)cc1` [Compound 14, 2,6-difluoro-N-(4-(2-(prop-1-en-2-yl)-5-(pyridin-3-yl)thiophen-3-yl)phenyl)benzamide]: in the assay with IL-2 (activity class), the IC50 is < 50 nM. At CRACM1/STIM1, the inhibition at 0.5 µM was < 50%. For the compound `Cc1sc(-c2cccnc2)nc1-c1ccc(NC(=O)c2c(F)cccc2F)nc1` [Compound 3, 2,6-Difluoro-N-(5-(5-methyl-2-(pyridin-3-yl)thiazol-4-yl)pyridin-2-yl)benzamide], the IC50 with IL-2 (activity class) was < 50 nM. The inhibition at 0.5 µM at CRACM1/STIM1 lay within 70 to 100%. For the compound `Cc1sc(-c2cccnc2)cc1-c1cnc(NC(=O)c2c(F)cccc2F)cn1` [Compound 17, 2,6-difluoro-N-(5-(2-methyl-5-(pyridin-3-yl)thiophen-3-yl)pyrazin-2-yl)benzamide], in the assay on IL-2 (activity class), the IC50 was < 50 nM.

For the compound `CC(C)c1sc(-c2cccnc2)nc1-c1ccc(NC(=O)c2ccc(F)cc2F)nc1` [D], the IC50 in the assay with IL-2 (activity class) fell in the range of 50 to 100 nM. Take `Cc1sc(-c2ccccn2)nc1-c1ccc(NC(=O)c2c(F)cccc2F)nc1` [Compound 1, 2,6-Difluoro-N-(5-(5-methyl-2-(pyridin-2-yl)thiazol-4-yl)pyridin-2-yl)benzamide]: the IC50 in the assay with IL-2 (activity class) was < 50 nM. This compound also displayed an inhibition at 0.5 µM against CRACM1/STIM1 of 50 to 70%.

For the compound `Cc1sc(-c2ncco2)cc1-c1ccc(NC(=O)c2c(F)cccc2F)cc1` [J], the IC50 with IL-2 (activity class) is < 50 nM. As to `Cc1cc(CCc2cccnc2)sc1-c1ccc(NC(=O)c2c(F)cccc2F)cc1` [Compound 8, 2,6-difluoro-N-(4-(3-methyl-5-(2-(pyridin-3-yl)ethyl)thiophen-2-yl)phenyl)benzamide], the IC50 in the assay on IL-2 (activity class) was < 50 nM. The compound further had an inhibition at 0.5 µM on CRACM1/STIM1 of 70 to 100%. Turning to `Cc1cc(-c2nc(-c3ccc(NC(=O)c4cccc(F)c4C)nc3)c(C)s2)no1` [Compound A6], in the assay on IL-2 (numeric values, unit inferred), the IC50 came to 21 nM. With `Cc1cccc(F)c1C(=O)Nc1ccc(-c2nc(-c3cnn(C)c3)sc2C)cn1` [Compound A5], the IC50 with IL-2 (numeric values, unit inferred) was 77 nM.

For the compound `CCc1sc(-c2cnn(C)c2)nc1-c1cnc(NC(=O)c2c(F)cccc2F)cn1` [Compound A10], in the assay with IL-2 (numeric values, unit inferred), the IC50 was 40 nM. As for `CC(C)(O)c1sc(-c2cccnc2)cc1-c1ccc(NC(=O)c2c(F)cccc2F)cc1` [N], the IC50 with IL-2 (activity class) is < 50 nM. `Cc1sc(-c2ncco2)cc1-c1cnc(NC(=O)c2c(F)cccc2F)cn1` [S]: the IC50 in the assay on IL-2 (activity class) is < 50 nM. For `O=C(Nc1ccc(-c2cc(-c3cccnc3)sc2-c2cccnc2)cc1)c1c(F)cccc1F` [Compound 16, N-(4-(2,5-di(pyridin-3-yl)thiophen-3-yl)phenyl)-2,6-difluorobenzamide], the IC50 in the assay with IL-2 (activity class) is < 50 nM. In the case of `Cc1sc(-c2cnco2)nc1-c1ccc(NC(=O)c2c(F)cccc2F)cc1` [G], the IC50 in the assay on IL-2 (activity class) was < 50 nM. Consider `CC(C)(O)c1sc(-c2cccnc2)cc1-c1ccc(NC(=O)c2c(F)cccc2F)nc1` [Compound 9, 2,6-difluoro-N-(5-(2-(2-hydroxypropan-2-yl)-5-(pyridin-3-yl)thiophen-3-yl)pyridin-2-yl)benzamide], for which the IC50 in the assay on IL-2 (activity class) is > 100 nM. For `CC(C)c1sc(-c2cnn(C)c2)nc1-c1ccc(NC(=O)c2ccc(F)cc2F)nc1` [Compound 5, 2,4-Difluoro-N-(5-(5-isopropyl-2-(1-methyl-1H-pyrazol-4-yl)thiazol-4-yl)pyridin-2-yl)benzamide], the IC50 in the assay on IL-2 (activity class) is > 100 nM.

Take `CCc1sc(-c2cnn(C)c2)nc1-c1ccc(C(=O)Nc2c(C)cccc2F)cc1` [Compound A12]: the IC50 with IL-2 (numeric values, unit inferred) stood at 44 nM. `CC(C)c1sc(-c2cccnc2)cc1-c1cnc(NC(=O)c2c(F)cccc2F)cn1` [Compound T]: in the assay on IL-2 (activity class), the IC50 is < 50 nM.

For `CC(C)(O)c1sc(-c2cccnc2)cc1-c1cnc(NC(=O)c2c(F)cccc2F)cn1` [Compound 12, 2,6-difluoro-N-(5-(2-(2-hydroxypropan-2-yl)-5-(pyridin-3-yl)thiophen-3-yl)pyrazin-2-yl)benzamide], the IC50 in the assay on IL-2 (activity class) was > 100 nM.

By inhibition is commonly meant the relative decrease from the control value, in per cent. A high value points to a response far below the control.

For the origin of these results see patent publication US8314130B2, “Compounds inclunding substituted pyridines for inflammation and immune-related uses” (Synta Pharmaceuticals Corp., priority 2008, dated 2012).
